Measurements: article PMC5833296 (Journal of medicinal chemistry, 2018)
Read-outs that look alike come from different tables or passages of the source. Marks after values point to notes of the source that are not given here.

Experiments:
BoNT/A = settings: mouse, in vivo; cited from earlier work
[1] = test system: CYP450 enzymes (CYP3A4, CYP2C19, CYP2D6); assay: in vitro; settings: human
healthy mice = settings: mouse, in vivo; for Mice alive/Total mice: po, 160 mg/kg
[2] = in vivo
HSA = HSA (Homo sapiens, UniProt P02768); settings: pH 7.34
AGP = settings: pH 7.34
BoNT/A holotoxin [3] = test system: BoNT/A holotoxin
BoNT/A holotoxin [4] = molecular target: BoNT/A holotoxin (Clostridium botulinum, UniProt P0DPI1); assay: cell-based
BoNT/A holotoxin [5] = molecular target: BoNT/A holotoxin (Clostridium botulinum, UniProt P0DPI0)
BoNT/A holotoxin (Clostridium botulinum, UniProt P0DPI0), sequence (P0DPI0 2-1296 limits assumed): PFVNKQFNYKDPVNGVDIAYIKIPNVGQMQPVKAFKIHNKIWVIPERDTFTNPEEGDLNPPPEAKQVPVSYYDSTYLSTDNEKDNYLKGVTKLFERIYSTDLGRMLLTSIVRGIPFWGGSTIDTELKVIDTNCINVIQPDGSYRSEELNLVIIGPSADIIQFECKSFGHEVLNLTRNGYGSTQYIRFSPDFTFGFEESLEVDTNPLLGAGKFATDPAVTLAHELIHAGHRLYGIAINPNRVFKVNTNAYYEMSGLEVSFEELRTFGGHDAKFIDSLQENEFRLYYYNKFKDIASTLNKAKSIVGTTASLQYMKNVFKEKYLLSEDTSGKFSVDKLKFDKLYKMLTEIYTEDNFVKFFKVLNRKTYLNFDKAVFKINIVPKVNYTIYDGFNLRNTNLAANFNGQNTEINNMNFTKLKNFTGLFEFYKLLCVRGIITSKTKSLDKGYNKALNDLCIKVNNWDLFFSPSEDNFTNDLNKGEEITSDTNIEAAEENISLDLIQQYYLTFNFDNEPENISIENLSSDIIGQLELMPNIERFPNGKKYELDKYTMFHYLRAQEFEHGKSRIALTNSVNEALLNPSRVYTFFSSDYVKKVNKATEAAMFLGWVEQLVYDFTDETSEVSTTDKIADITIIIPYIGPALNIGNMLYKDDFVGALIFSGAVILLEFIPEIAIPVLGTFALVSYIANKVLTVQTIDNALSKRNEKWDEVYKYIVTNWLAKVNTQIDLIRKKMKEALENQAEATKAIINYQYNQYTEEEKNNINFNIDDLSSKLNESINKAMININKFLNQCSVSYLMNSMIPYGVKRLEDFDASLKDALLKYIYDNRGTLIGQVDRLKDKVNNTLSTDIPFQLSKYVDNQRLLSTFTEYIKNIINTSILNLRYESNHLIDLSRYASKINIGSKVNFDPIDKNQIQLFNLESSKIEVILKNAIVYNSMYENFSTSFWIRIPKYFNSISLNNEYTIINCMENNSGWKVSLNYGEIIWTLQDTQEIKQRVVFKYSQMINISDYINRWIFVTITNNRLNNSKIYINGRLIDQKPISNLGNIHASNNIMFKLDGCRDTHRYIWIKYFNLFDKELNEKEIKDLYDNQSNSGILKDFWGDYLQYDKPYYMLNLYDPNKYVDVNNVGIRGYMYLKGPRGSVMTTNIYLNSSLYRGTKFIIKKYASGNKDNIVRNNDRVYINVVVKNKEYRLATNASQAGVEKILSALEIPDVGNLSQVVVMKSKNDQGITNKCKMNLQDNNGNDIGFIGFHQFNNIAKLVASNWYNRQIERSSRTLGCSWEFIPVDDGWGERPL

BoNT/A holotoxin (Clostridium botulinum, UniProt P0DPI1), sequence (P0DPI1 2-448 limits assumed): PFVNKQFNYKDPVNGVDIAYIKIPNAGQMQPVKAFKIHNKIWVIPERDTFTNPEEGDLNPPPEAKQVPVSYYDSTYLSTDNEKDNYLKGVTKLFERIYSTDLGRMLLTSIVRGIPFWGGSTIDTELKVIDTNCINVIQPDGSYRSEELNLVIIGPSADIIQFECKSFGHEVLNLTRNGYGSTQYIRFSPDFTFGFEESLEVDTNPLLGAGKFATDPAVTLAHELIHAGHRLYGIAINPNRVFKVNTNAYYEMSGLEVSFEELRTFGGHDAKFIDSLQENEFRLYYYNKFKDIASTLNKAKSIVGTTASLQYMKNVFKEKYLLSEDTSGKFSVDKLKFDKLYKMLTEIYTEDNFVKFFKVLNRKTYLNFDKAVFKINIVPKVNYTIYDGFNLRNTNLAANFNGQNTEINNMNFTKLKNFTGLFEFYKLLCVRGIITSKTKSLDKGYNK
HSA, sequence (P02768 25-609): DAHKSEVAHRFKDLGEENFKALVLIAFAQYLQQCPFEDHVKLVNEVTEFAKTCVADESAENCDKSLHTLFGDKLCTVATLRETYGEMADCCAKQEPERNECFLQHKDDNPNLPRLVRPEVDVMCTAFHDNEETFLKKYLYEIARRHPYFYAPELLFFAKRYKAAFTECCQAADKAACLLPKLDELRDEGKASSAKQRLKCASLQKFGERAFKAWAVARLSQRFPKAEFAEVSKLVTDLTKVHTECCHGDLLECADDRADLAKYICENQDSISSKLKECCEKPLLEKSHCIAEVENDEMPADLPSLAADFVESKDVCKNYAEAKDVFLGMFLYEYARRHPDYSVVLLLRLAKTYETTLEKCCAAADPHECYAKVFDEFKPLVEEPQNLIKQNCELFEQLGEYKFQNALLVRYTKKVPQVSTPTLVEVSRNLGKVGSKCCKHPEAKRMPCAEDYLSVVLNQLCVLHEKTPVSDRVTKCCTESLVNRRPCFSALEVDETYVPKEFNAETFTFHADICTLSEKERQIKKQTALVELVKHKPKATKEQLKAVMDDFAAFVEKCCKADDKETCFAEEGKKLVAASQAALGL

Compound	Mice alive/Total mice (healthy mice)	exp LogD (pH 1)	% of full length SNAP-25, mES-MNs pre intoxication (BoNT/A holotoxin [4])	IC50 (BoNT/A holotoxin [4]) [µM]	% of full length SNAP-25, mES-MNs pre intoxication (BoNT/A holotoxin [4]; 10 μM)	% of full length SNAP-25, mES-MNs pre intoxication (BoNT/A holotoxin [4]; 20 μM)	also measured
O=C(CS)Nc1cc(-c2ccc(F)cc2)n[nH]1 [ABS 252, N-(3-(4-fluorophenyl)-1H pyrazol-5 yl)-2-mercaptoacetamide]							survival of BoNT intoxicated mice (BoNT/A): effective in extending survival
CC(=O)O[C@H]1C[C@H]2[C@@H]([C@H](OC(C)=O)C[C@@H]3C[C@H](N)CC[C@@]32C)[C@@H]2CC[C@H]([C@H](C)CCCNCCCCNc3ccnc4cc(Cl)ccc34)[C@@]12C [Compound 16]	5/5	2.55 (pH=1); 2.07 (pH=7.3) ^d	72; 88%				IC50 [1]: 1 to 10 µM; host toxicity, single oral dose (healthy mice): non-toxic; time Tc > 3μM ([2]; mouse): >45 min; Ksv for HSA (HSA): (4.56±0.27)×10^4; Ksv for AGP (AGP): (6.99±0.25)×10^5; toxicity in mES-MNs (GAPDH loading control levels lower) (BoNT/A holotoxin [3]): potential toxicity
CC(=O)O[C@H]1C[C@H]2[C@@H]([C@H](OC(C)=O)C[C@@H]3C[C@H](NCCCCCCNc4ccnc5cc(Cl)ccc45)CC[C@@]32C)[C@@H]2CC[C@H]([C@H](C)CCCNCCCCCCNc3ccnc4cc(Cl)ccc34)[C@@]12C [Compound 1, reference compound]				< 10	70; 84%	70; 84%	% of full length SNAP-25, mES-MNs post intoxication (BoNT/A holotoxin [5]): 36; 20%
CN(CCCNc1ccnc2cc(Cl)ccc12)CC12CC3CC(CC(C3)C1)C2 [Compound 57]	4/5				51; 56%	51; 56%	exp LogD (pH 10): 3.24 (pH=10)
C[C@H](CCCNCCCCNc1ccnc2cc(Cl)ccc12)[C@H]1CC[C@H]2[C@@H]3[C@H](O)C[C@@H]4C[C@H](N)CC[C@]4(C)[C@H]3C[C@H](O)[C@]12C [Compound 24]		2.97 (pH=1)		8 to 16			detection as metabolite in mouse samples after oral 16 [2]: None of these metabolites were detected; % of full length SNAP-25, mES-MNs pre intoxication (BoNT/A holotoxin [4]; 8 μM): 46; 58 ^e %; % of full length SNAP-25, mES-MNs pre intoxication (BoNT/A holotoxin [4]; 16 μM): 46; 58 ^e %
CN(CCCCCCCCNc1ccnc2ccccc12)Cc1ccc(-c2ccc(-c3ccc(C#N)cc3)s2)cc1 [Compound 96]	5/5	3.33 (pH=1)	54; 60%	5 to 10			
